In brackets after ≈: the same amount, converted by molar mass.
Experiments:
[1] = test system: Candida albicans (ATCC-10231); assay: Antifungal culture microdilution MIC assay; assay type: cell-based; settings: ATCC10231, 50% reduction of fungal growth, 48-72 hours
Source text: (§1) The anti-fungal activity of CAP-50CR and CAP-1.5SE against Malassezia furfur and Candida albicans are compared with the anti-fungal drug ketoconazole by the minimum inhibitory concentration (“MIC”) method.
(§2) The inhibitory effect assay of CAP-50CR and CAP-1.5SE against Malassezia furfur and Candida albicans may be performed as per a culture microdilution reference method. Ketoconazole, an anti-fungal drug, may be used as the standard. Freeze-dried Candida albicans (ATCC-10231) and Malassezia furfur (ATCC-14521) strains may be used as well. A loopful culture of Malassezia furfur and Candida albicans may be streaked on SDA (Sabouraud Dextrose Agar), and incubated at 35±2° C. and 25±2° C. for 48-72 hours, respectively. Finally, cells may be suspended in a RPMI 1640 medium to obtain a final concentration of 1×10^6 CFU/mL. For the evaluation of inhibitory activity, the effect of CAP-50CR and CAP-1.5SE may be examined against strains of Malassezia furfur and Candida albicans cultured in 96-well microplates at different concentrations of 35±2° C. and 25±2° C., respectively, for 48-72 hours.
(§3) Sterility and growth control may also be used. Yeast growth may be determined in an Enzyme-Linked ImmunoSorbent Assay Microplate Reader at 530 nm. […]

[2] = test system: Malassezia furfur (ATCC-14521); assay: Antifungal culture microdilution MIC assay; assay type: cell-based; settings: ATCC14521, 50% reduction of fungal growth, 48-72 hours
Source text: as §1, §2, §3

MIC50 [1]: 0.48 µg/mL (≈ 0.903 µM)
MIC50 [2]: 0.48 µg/mL (≈ 0.903 µM)
SMILES: CC(=O)N1CCN(c2ccc(OCC3COC(Cn4ccnc4)(c4ccc(Cl)cc4Cl)O3)cc2)CC1 (centres unmarked) [Ketoconazole]
